The text below walks through data of publication PMC6704710, “Preclinical evaluation of 3D185, a novel potent inhibitor of FGFR1/2/3 and CSF-1R, in FGFR-dependent and macrophage-dominant cancer models” (Journal of Experimental & Clinical Cancer Research : CR, 2019).

What all share (assay): Eurofins kinase panel
What all share (format): biochemical
What all share (conditions): read-out: Inhibition rate (%)

One test concerns the target T1, TLK1(h) (Homo sapiens, UniProt Q9UKI8).
T1 construct: purchased Eurofins (KinaseProfiler)
T1 sequence (Q9UKI8 1-766): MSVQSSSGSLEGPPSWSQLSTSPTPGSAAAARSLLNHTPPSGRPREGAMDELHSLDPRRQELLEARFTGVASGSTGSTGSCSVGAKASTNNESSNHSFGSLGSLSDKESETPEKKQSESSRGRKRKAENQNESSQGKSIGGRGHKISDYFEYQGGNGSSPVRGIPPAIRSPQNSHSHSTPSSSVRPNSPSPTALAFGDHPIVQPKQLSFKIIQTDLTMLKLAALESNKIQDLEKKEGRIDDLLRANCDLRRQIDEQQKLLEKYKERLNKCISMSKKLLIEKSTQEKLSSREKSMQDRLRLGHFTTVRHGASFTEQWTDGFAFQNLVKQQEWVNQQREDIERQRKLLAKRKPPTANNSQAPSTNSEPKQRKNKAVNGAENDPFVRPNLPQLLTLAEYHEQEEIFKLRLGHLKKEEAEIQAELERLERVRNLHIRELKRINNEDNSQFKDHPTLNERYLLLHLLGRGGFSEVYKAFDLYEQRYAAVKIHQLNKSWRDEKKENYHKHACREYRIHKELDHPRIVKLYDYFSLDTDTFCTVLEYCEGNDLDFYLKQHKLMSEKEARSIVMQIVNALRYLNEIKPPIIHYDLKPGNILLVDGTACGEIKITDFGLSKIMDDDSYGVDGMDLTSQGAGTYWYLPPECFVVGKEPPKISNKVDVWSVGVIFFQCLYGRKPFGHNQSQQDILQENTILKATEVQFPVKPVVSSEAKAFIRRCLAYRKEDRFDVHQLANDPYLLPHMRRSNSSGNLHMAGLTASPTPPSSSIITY

A further test addresses T2, PIP4K2α(h) (Homo sapiens, UniProt P48426).
T2 construct: purchased Eurofins (KinaseProfiler)
T2 sequence (P48426 1-406): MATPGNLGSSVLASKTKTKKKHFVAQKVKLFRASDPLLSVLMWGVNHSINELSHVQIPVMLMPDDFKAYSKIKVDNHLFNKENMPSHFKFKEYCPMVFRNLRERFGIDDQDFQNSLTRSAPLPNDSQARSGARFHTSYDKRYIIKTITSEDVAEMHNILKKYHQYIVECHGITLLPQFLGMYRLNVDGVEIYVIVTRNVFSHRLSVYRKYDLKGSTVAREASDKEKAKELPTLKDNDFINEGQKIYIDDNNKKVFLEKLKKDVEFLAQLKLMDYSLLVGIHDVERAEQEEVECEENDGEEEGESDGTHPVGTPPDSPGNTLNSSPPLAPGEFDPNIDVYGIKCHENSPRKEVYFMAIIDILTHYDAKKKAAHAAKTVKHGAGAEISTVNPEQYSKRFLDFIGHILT

In another test the target is T3, PDGFRα(V561D)(h) (Homo sapiens, UniProt P16234, V561D).
T3 construct: purchased Eurofins (KinaseProfiler)

For another test, the target named is T4, Yes(h) (Homo sapiens, UniProt P07947).
T4 construct: purchased Eurofins (KinaseProfiler)

The target in another test is T5, PKCα(h) (Homo sapiens, UniProt P17252).
T5 construct: purchased Eurofins (KinaseProfiler)

The next test deals with T6, SIK3(h) (Homo sapiens, UniProt Q9Y2K2).
T6 construct: purchased Eurofins (KinaseProfiler)

The target of the next test is T7, TBK1(h) (Homo sapiens, UniProt Q9UHD2).
T7 construct: purchased Eurofins (KinaseProfiler)
T7 sequence (Q9UHD2 1-729): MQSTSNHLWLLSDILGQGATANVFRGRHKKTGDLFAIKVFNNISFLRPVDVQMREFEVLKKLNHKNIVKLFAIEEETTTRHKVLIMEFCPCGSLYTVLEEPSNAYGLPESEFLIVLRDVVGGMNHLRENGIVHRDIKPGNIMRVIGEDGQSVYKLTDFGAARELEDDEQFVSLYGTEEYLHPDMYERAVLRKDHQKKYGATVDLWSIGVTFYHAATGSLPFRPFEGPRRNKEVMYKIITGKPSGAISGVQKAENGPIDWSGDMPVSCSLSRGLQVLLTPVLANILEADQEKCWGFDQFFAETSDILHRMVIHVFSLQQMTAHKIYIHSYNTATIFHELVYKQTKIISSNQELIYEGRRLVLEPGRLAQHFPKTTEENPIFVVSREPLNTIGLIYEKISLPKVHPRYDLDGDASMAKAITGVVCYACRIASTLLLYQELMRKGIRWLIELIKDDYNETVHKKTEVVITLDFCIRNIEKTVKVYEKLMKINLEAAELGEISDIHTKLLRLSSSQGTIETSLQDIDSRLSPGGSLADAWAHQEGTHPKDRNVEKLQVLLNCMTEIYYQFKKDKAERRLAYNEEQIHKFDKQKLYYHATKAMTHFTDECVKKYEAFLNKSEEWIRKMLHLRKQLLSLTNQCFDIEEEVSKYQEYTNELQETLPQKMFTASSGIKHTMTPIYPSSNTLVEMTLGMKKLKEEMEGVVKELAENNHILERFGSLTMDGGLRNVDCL

T4 sequence (P07947 whole entry): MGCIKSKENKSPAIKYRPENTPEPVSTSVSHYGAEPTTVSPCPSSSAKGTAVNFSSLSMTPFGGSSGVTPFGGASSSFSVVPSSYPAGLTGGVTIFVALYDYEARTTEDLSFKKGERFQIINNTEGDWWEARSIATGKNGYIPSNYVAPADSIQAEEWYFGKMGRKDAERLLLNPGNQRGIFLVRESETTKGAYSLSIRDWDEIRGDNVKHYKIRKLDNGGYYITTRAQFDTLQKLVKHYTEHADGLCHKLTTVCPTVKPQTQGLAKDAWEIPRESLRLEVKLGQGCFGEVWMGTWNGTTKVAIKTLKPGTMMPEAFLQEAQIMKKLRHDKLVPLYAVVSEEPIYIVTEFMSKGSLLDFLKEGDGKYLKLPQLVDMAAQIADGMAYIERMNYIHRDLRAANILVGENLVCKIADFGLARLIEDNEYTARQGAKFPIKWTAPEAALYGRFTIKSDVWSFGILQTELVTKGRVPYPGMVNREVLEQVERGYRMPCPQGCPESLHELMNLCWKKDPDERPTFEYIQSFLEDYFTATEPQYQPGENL
T6 sequence (Q9Y2K2 whole entry): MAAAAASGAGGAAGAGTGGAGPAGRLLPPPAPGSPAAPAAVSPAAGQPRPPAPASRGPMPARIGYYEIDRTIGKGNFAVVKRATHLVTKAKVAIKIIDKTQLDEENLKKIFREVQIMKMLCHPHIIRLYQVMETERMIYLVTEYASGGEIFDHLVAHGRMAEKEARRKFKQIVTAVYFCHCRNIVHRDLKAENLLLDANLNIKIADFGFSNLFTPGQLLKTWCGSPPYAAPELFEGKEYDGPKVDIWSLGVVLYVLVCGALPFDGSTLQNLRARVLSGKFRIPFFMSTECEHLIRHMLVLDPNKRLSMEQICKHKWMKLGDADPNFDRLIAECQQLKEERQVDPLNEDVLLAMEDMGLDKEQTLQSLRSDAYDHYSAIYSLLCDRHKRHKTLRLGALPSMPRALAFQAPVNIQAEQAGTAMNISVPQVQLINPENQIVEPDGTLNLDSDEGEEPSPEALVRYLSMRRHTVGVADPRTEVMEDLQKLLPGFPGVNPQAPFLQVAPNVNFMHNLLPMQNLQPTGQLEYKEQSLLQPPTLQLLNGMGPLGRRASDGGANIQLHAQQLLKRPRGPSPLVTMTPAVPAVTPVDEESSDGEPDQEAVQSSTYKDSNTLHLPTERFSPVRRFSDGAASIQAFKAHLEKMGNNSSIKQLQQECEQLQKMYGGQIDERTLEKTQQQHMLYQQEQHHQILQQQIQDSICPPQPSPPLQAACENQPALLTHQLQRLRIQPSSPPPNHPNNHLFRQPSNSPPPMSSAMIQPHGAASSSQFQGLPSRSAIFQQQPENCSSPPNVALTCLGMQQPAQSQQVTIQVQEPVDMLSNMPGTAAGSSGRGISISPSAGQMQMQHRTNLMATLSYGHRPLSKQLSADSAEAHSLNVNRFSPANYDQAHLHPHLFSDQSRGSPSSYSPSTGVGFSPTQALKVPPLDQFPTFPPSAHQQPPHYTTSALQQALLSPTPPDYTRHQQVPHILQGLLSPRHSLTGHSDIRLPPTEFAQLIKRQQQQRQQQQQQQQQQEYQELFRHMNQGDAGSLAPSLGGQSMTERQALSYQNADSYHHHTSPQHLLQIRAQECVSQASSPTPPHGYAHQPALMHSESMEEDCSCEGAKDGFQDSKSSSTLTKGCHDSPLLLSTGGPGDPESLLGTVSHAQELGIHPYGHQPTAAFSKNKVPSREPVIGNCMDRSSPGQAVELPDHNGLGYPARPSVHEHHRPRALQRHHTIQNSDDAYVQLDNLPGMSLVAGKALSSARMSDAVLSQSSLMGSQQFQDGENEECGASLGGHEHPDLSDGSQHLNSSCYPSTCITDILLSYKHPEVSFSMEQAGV
T3 sequence (P16234 24-1089 V561D): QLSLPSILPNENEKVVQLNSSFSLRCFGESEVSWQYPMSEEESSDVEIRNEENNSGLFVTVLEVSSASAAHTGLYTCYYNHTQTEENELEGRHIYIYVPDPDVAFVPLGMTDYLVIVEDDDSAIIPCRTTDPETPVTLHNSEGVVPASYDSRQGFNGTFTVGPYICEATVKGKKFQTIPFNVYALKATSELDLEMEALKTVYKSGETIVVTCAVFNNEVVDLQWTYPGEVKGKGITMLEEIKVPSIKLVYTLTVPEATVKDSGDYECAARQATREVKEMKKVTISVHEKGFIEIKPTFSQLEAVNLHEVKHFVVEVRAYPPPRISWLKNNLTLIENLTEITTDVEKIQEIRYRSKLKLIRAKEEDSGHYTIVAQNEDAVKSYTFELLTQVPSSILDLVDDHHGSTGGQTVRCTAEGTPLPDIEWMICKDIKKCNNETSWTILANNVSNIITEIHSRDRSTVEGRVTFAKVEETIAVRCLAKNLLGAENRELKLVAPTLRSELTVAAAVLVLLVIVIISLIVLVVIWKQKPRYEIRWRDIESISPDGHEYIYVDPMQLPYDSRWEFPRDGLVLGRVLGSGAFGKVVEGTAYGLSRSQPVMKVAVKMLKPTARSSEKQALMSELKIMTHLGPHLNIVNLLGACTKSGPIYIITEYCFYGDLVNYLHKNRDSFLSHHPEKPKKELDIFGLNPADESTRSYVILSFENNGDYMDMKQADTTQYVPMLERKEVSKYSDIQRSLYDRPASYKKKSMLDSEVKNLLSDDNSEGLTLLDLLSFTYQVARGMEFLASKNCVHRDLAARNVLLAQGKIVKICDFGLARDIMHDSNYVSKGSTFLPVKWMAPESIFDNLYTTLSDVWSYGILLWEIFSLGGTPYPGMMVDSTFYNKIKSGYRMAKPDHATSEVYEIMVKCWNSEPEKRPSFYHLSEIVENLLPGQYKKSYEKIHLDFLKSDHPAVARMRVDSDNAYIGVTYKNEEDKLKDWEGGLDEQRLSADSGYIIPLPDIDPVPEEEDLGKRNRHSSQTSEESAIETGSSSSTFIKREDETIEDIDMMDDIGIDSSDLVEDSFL

For orientation: inhibition means the drop in the measured response relative to a control, in per cent. As for `COc1cc(OC)c(Cl)c(-c2ccc3c(NC(=O)c4ccc(N5CCNC(C)(C)C5)cc4)n[nH]c3n2)c1Cl` [3D185], the inhibition at 0.01 µM is -1% on TLK1(h) (10 nM); 1% on PIP4K2α(h) (10 nM); 5% at PDGFRα(V561D)(h) (10 nM); 10% on Yes(h) (10 nM); -1% at PKCα(h) (10 nM); -4% on SIK3(h) (10 nM). For the same compound, the inhibition at 0.01 µM on TBK1(h) (10 nM) is -6%. In addition, the inhibition at 0.1 µM at TLK1(h) (100 nM) is -4%; on PIP4K2α(h) (100 nM), -2%; on PDGFRα(V561D)(h) (100 nM) it was 23%; on Yes(h) (100 nM) it was 66%; at PKCα(h) (100 nM), 1%; at SIK3(h) (100 nM), -1%. The inhibition at 0.1 µM on TBK1(h) (100 nM) was -2%. The inhibition at 1 µM is -8% on TLK1(h) (1000 nM); 4% on PIP4K2α(h) (1000 nM); 57% at PDGFRα(V561D)(h) (1000 nM); 97% on Yes(h) (1000 nM); 3% on PKCα(h) (1000 nM); -2% at SIK3(h) (1000 nM). At TBK1(h) (1000 nM), the inhibition at 1 µM is -1%.
